Earlier results on one compound are cited in patent US11045444B2, “Composition and method for promoting eyelash and eyebrow growth exclusively containing naturally sourced ingredients” (Plume Cosmetics Inc., priority 2016, dated 2021).

The structures appear in SMILES notation.

Turning to `C=C[C@@]1(C)CC(=O)[C@]2(O)[C@@]3(C)[C@@H](O)CCC(C)(C)[C@@H]3[C@H](O)[C@H](OC(C)=O)[C@@]2(C)O1` [forskolin], the solubility in water entry is on record as “approximately 0.001%”.
